Results published in patent publication US11267811B2, “Small molecule inhibitors of galectin-3” (BRISTOL-MYERS SQUIBB COMPANY, priority 2017, dated 2022).

Molecular target: His-tagged recombinant human Gal-3 (hGal-3) (Homo sapiens (Human), UniProt P17931)
Assay: Gal-3 HTRF assay (His-tagged hGal-3 binding to B-ASF);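 also: compounds preincubated 30 min with hGal-3, then 1 h with B-ASF, detection via terbium anti-His antibody and streptavidin d2. Control with B-ASF counts as full signal, omitting B-ASF as background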
Conditions: HTRF, hGal-3 15 nM, B-ASF 15 nM; read-out: hGal-3 IC50

His-tagged recombinant human Gal-3 (hGal-3), sequence (P17931 whole entry): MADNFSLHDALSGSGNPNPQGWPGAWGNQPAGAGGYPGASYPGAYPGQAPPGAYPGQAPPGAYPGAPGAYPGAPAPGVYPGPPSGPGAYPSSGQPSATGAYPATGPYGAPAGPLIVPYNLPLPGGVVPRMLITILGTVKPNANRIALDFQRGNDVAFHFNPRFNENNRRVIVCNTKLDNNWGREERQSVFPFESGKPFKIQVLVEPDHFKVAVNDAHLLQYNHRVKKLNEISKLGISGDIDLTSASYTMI

SMILES	IC50 [nM]
OC[C@H]1O[C@@H](c2nn[nH]c2-c2cccc(Cl)c2)[C@H](O)[C@@H](n2cc(-c3cc(F)c(F)c(F)c3)nn2)[C@H]1O [Example 290, (2S,3R,4R,5R,6R)-2-(5-(3-chlorophenyl)-1H-1,2,3-triazol-4-yl)-6-(hydroxymethyl)-4-(4-(3,4,5-trifluorophenyl)-1H-1,2,3-triazol-1-yl)tetrahydro-2H-pyran-3,5-diol]	3000
OC[C@H]1O[C@@H](n2ccc3cc(Cl)ccc32)[C@H](O)[C@@H](n2cc(-c3cc(F)c(F)c(F)c3)nn2)[C@H]1O [Example 291, (2R,3R,4S,5R,6R)-2-(5-chloro-1H-indol-1-yl)-6-(hydroxymethyl)-4-(4-(3,4,5-trifluorophenyl)-1H-1,2,3-triazol-1-yl)tetrahydro-2H-pyran-3,5-diol]	10000
COc1ccc([C@@H]2O[C@H](CO)[C@H](O)[C@H](n3cc(-c4cc(F)c(F)c(F)c4)nn3)[C@H]2O)cc1 [Example 292, (2R,3R,4R,5R,6S)-2-(hydroxymethyl)-6-(4-methoxyphenyl)-4-(4-(3,4,5-trifluorophenyl)-1H-1,2,3-triazol-1-yl)tetrahydro-2H-pyran-3,5-diol]	10000
CNC(=O)c1nnc([C@@H]2O[C@H](CO)[C@H](O)[C@H](n3cc(-c4cccc(F)c4)nn3)[C@H]2O)o1 [Example 295, 5-((2R,3R,4S,5R,6R)-4-(4-(3-fluorophenyl)-1H-1,2,3-triazol-1-yl)-3,5-dihydroxy-6-(hydroxymethyl)tetrahydro-2H-pyran-2-yl)-N-methyl-1,3,4-oxadiazole-2-carboxamide]	14400
O=C(NCc1ccncc1)c1nnc([C@@H]2O[C@H](CO)[C@H](O)[C@H](n3cc(-c4cccc(F)c4)nn3)[C@H]2O)o1 [Example 296, 5-((2R,3R,4S,5R,6R)-4-(4-(3-fluorophenyl)-1H-1,2,3-triazol-1-yl)-3,5-dihydroxy-6-(hydroxymethyl)tetrahydro-2H-pyran-2-yl)-N-(pyridin-4-ylmethyl)-1,3,4-oxadiazole-2-carboxamide]	1490
CCN(CC)CCNC(=O)c1nnc([C@@H]2O[C@H](CO)[C@H](O)[C@H](n3cc(-c4cccc(F)c4)nn3)[C@H]2O)o1 [Example 297, N-(2-(diethylamino)ethyl)-5-((2R,3R,4S,5R,6R)-4-(4-(3-fluorophenyl)-1H-1,2,3-triazol-1-yl)-3,5-dihydroxy-6-(hydroxymethyl)tetrahydro-2H-pyran-2-yl)-1,3,4-oxadiazole-2-carboxamide]	9770
O=C(NCc1cccnc1)c1nnc([C@@H]2O[C@H](CO)[C@H](O)[C@H](n3cc(-c4cccc(F)c4)nn3)[C@H]2O)o1 [Example 298, 5-((2R,3R,4S,5R,6R)-4-(4-(3-fluorophenyl)-1H-1,2,3-triazol-1-yl)-3,5-dihydroxy-6-(hydroxymethyl)tetrahydro-2H-pyran-2-yl)-N-(pyridin-3-ylmethyl)-1,3,4-oxadiazole-2-carboxamide]	43600
O=C(NCCN1CCOCC1)c1nnc([C@@H]2O[C@H](CO)[C@H](O)[C@H](n3cc(-c4cccc(F)c4)nn3)[C@H]2O)o1 [Example 299, 5-((2R,3R,4S,5R,6R)-4-(4-(3-fluorophenyl)-1H-1,2,3-triazol-1-yl)-3,5-dihydroxy-6-(hydroxymethyl)tetrahydro-2H-pyran-2-yl)-N-(2-morpholinoethyl)-1,3,4-oxadiazole-2-carboxamide]	10600
Cc1nc([C@@H]2O[C@H](CO)[C@H](O)[C@H](n3cc(-c4cccc(F)c4)nn3)[C@H]2O)oc1CO [Example 300, (2R,3R,4S,5R,6R)-4-(4-(3-fluorophenyl)-1H-1,2,3-triazol-1-yl)-2-(hydroxymethyl)-6-(5-(hydroxymethyl)-4-methyloxazol-2-yl)tetrahydro-2H-pyran-3,5-diol]	9430
Cc1nc([C@@H]2O[C@H](CO)[C@H](O)[C@H](n3cc(-c4cccc(F)c4)nn3)[C@H]2O)oc1C(=O)O [Example 301, 2-((2R,3R,4S,5R,6R)-4-(4-(3-fluorophenyl)-1H-1,2,3-triazol-1-yl)-3,5-dihydroxy-6-(hydroxymethyl)tetrahydro-2H-pyran-2-yl)-4-methyloxazole-5-carboxylic acid]	6350
Cc1nc2ccc(-n3cnnc3[C@@H]3O[C@H](CO)[C@H](O)[C@H](n4cc(-c5cc(F)c(Br)c(F)c5)nn4)[C@H]3OCC(F)F)cc2s1 [Example 321, (2R,3R,4S,5R,6S)-4-(4-(4-bromo-3,5-difluorophenyl)-1H-1,2,3-triazol-1-yl)-5-(2,2-difluoroethoxy)-2-(hydroxymethyl)-6-(4-(2-methylbenzo[d]thiazol-6-yl)-4H-1,2,4-triazol-3-yl)tetrahydro-2H-pyran-3-ol]	53
Cc1nc2ccc(-n3cnnc3[C@@H]3O[C@H](CO)[C@H](O)[C@H](n4cc(-c5ccc(Br)c(F)c5)nn4)[C@H]3OCC(F)F)cc2s1 [Example 322, (2R,3R,4S,5R,6S)-4-(4-(4-bromo-3-fluorophenyl)-1H-1,2,3-triazol-1-yl)-5-(2,2-difluoroethoxy)-2-(hydroxymethyl)-6-(4-(2-methylbenzo[d]thiazol-6-yl)-4H-1,2,4-triazol-3-yl)tetrahydro-2H-pyran-3-ol]	72
OC[C@H]1O[C@@H](c2nncn2-c2cc(Cl)cc3cccnc23)[C@H](OCC(F)F)[C@@H](n2cc(-c3ccc(Br)c(F)c3)nn2)[C@H]1O [Example 323, (2R,3R,4S,5R,6S)-4-(4-(4-bromo-3-fluorophenyl)-1H-1,2,3-triazol-1-yl)-6-(4-(6-chloroquinolin-8-yl)-4H-1,2,4-triazol-3-yl)-5-(2,2-difluoroethoxy)-2-(hydroxymethyl)tetrahydro-2H-pyran-3-ol]	130
Cc1nnc([C@@H]2O[C@H](CO)[C@H](O)[C@H](n3cc(-c4ccc(Br)c(F)c4)nn3)[C@H]2OCC(F)F)n1-c1cc(Cl)ccc1C(F)(F)F [Example 325, (2R,3R,4S,5R,6S)-4-(4-(4-bromo-3-fluorophenyl)-1H-1,2,3-triazol-1-yl)-6-(4-(5-chloro-2-(trifluoromethyl)phenyl)-5-methyl-4H-1,2,4-triazol-3-yl)-5-(2,2-difluoroethoxy)-2-(hydroxymethyl)tetrahydro-2H-pyran-3-ol]	20
OC[C@H]1O[C@@H](c2nncn2-c2cc(Cl)ccc2Cl)[C@H](O)[C@@H](n2cc(-c3cc(F)c(Cl)c(F)c3)nn2)[C@H]1O [Example 326, (2S,3R,4R,5R,6R)-4-(4-(4-chloro-3,5-difluorophenyl)-1H-1,2,3-triazol-1-yl)-2-(4-(2,5-dichlorophenyl)-4H-1,2,4-triazol-3-yl)-6-(hydroxymethyl)tetrahydro-2H-py ran-3,5-diol]	44
Cc1nc([C@@H]2O[C@H](CO)[C@H](O)[C@H](n3cc(-c4ccc(Cl)c(Cl)c4)nn3)[C@H]2O)n(-c2cc(Cl)ccc2C(F)(F)F)n1 [Example A3, (2S,3R,4R,5R,6R)-2-(1-(5-Chloro-2-(trifluoromethyl)phenyl)-3-methyl-1H-1,2,4-triazol-5-yl)-4-(4-(3,4-dichlorophenyl)-1H-1,2,3-triazol-1-yl)-6-(hydroxymethyl)tetrahydro-2H-pyran-3,5-diol]	33

Same assay, conditions: read-out: hGal3 IC50

SMILES	IC50 [nM]
Cc1nc2ccc(-n3cnnc3[C@@H]3O[C@H](CO)[C@H](O)[C@H](n4cc(-c5cc(F)c(Cl)c(F)c5)nn4)[C@H]3O)cc2s1 [Example 302]	28
Cc1nc2ccc(-n3cnnc3[C@@H]3O[C@H](CO)[C@H](O)[C@H](n4cc(-c5ccc(Cl)c(F)c5)nn4)[C@H]3O)cc2s1 [Example 303]	23
OC[C@H]1O[C@@H](c2nncn2-c2cc(Cl)ccc2Cl)[C@H](O)[C@@H](n2cc(-c3ccc(Cl)c(F)c3)nn2)[C@H]1O [Example 304]	67
Cc1nc2ccc(-n3c(C)nnc3[C@@H]3O[C@H](CO)[C@H](O)[C@H](n4cc(-c5ccc(Cl)c(F)c5)nn4)[C@H]3O)cc2s1 [Example 305]	31
Cc1nc2ccc(-n3c(C)nnc3[C@@H]3O[C@H](CO)[C@H](O)[C@H](n4cc(-c5cc(F)c(Cl)c(F)c5)nn4)[C@H]3O)cc2s1 [Example 306]	35
CO[C@@H]1[C@@H](n2cc(-c3cc(F)c(Cl)c(F)c3)nn2)[C@@H](O)[C@@H](CO)O[C@H]1c1nncn1-c1cc(Cl)ccc1C(F)(F)F [Example 308]	22
OC[C@H]1O[C@@H](c2nncn2-c2cc(Cl)ccc2C(F)(F)F)[C@H](O)[C@@H](n2cc(-c3ccc(Cl)c(F)c3)nn2)[C@H]1O [Example 309]	20
CO[C@@H]1[C@@H](n2cc(-c3cc(F)c(Cl)c(F)c3)nn2)[C@@H](O)[C@@H](CO)O[C@H]1c1nnc(C)n1-c1cc(Cl)ccc1C(F)(F)F [Example 310]	22
Cc1nnc([C@@H]2O[C@H](CO)[C@H](O)[C@H](n3cc(-c4cc(F)c(Cl)c(F)c4)nn3)[C@H]2O)n1-c1cc(Cl)ccc1C(F)(F)F [Example 311]	12
N#Cc1ccc(Cl)cc1-n1cnnc1[C@@H]1O[C@H](CO)[C@H](O)[C@H](n2cc(-c3cc(F)c(Cl)c(F)c3)nn2)[C@H]1O [Example 312]	1600
Cc1nnc([C@@H]2O[C@H](CO)[C@H](O)[C@H](n3cc(-c4cc(F)c(Br)c(F)c4)nn3)[C@H]2O)n1-c1cc(Cl)ccc1C(F)(F)F [Example 313]	8.7
Cc1nc2ccc(-n3c([C@@H]4O[C@H](CO)[C@H](O)[C@H](n5cc(-c6cc(F)c(Br)c(F)c6)nn5)[C@H]4O)nnc3C(F)(F)F)cc2s1 [Example 314]	57
Cc1nc2ccc(-n3c([C@@H]4O[C@H](CO)[C@H](O)[C@H](n5cc(-c6ccc(Br)c(F)c6)nn5)[C@H]4O)nnc3C(F)(F)F)cc2s1 [Example 315]	980
Cc1nnc([C@@H]2O[C@H](CO)[C@H](O)[C@H](n3cc(-c4cc(F)c(Br)c(F)c4)nn3)[C@H]2O)n1-c1cc(Cl)cc2cccnc12 [Example 318]	11
Cc1nnc([C@@H]2O[C@H](CO)[C@H](O)[C@H](n3cc(-c4cc(F)c(Cl)c(F)c4)nn3)[C@H]2O)n1-c1cc(Cl)cc2cccnc12 [Example 319]	14
